Series [1] deals with S. aureus. The series is described as follows: Antibacterial activity of anodized disk impregnated with benzalkonium chloride, deposited 5 min on agar plate lawn. The class given is cell-based. The note with it: anodized disk soaked 10 min, FIG. 4. As for the experimental part: Anodized and non-anodized aluminum disks were compared for incorporation/storage and recovery/diffusion of a chemical antibacterial compound. Briefly, anodized and non-anodized disks were prepared as described hereinbefore. The disks were then impregnated or not with benzalkonium chloride (an antibacterial) by soaking 10 min at room temperature and rinsed several times with water.
The disks were then tested for diffusion of the antimicrobial benzalkonium by measuring their respective antibacterial activity when deposited for 5 min on an agar plate lawn of S. aureus. […] This confirms incorporation and subsequent release of the antibacterial chemical from the anodized porous surface layer.

The subject of series [2] is S. aureus. In words: Long term conservation: antibacterial activity of impregnated anodized aluminum disks after storage. The note with it: disks impregnated 4 years ago, 2.12% w/v; deposition 5 min on agar plate lawn. The class given is cell-based. As for the experimental part:
An experiment was designed to evaluate the presence and integrity of samples stored in the anodized metallic support.
The antimicrobial activity was measured by diffusion of the antimicrobial benzalkonium following deposition for 5 min on an agar plate lawn of S. aureus (results not shown).

This is an account of results in US20190197375A1, “TRACEABLE METALLIC PRODUCTS AND METALLIC SUPPORT FOR NANOSTORAGE” (9163-0384 QUEBÉC INC., priority 2013, published 2019).

benzalkonium chloride: in series [1], the “Inhibition of bacterial growth by impregnated anodized disk” value was “successfully inhibited bacterial growth”. In addition, the “Antibacterial activity after storage in anodized aluminum disks” value in series [2] is “still possible to measure antibacterial activity”.
